# Test results as given in US20070027150A1 (priority 2005, published 2007).
# Biological target: His-tagged N-terminal ATP binding domain (amino acid residues 9-236) of HSP90α (Homo sapiens, UniProt P07900)
# Assay: HSP90 inhibitor binding potency: TRF competition binding assay
# Details: Table I; read-out: Hsp90 IC50 Range
# Protocol: HSP90 Inhibitor Binding Potency: TRF Binding Assay
# In this example, the binding potency of HSP90 inhibitors as measured by a TRF binding assay is described.
# TRF competition binding assays were performed to determine the binding potency (IC50 values) of HSP90 inhibitors. Purified His-tagged N-terminal ATP binding domain (amino acid residues 9-236) of HSP90α (HSP90α GeneID: 3320; mRNA Sequence NM_005348) was incubated for two hours at room temperature in binding buffer (50 mM HEPES, 6 mM MgCl2, 20 mM KCl and 0.1% BSA) with biotinylated radicicol and progressively higher concentrations of the competing compounds. A fraction of the mixture was transferred to capture plates (coated with streptavidin) and incubated for one hour at room temperature. After washing with DELFIA wash buffer, europium-labeled anti-his antibody was added and incubated for two hours at room temperature, followed by washing with DELFIA buffer. DELFIA enhancement solution was then added. After gentle shaking for 10 minutes, the plates were read in VICTOR for europium counts.
row,Structure (SMILES),IC50
1,"Cc1nc(N)nc2c1C(=O)CC(c1ccccc1C#Cc1ccccc1)C2 (centres unmarked) [Compound 37, 2-amino-4-methyl-7-[2-(phenylethynyl)phenyl]-7,8-dihydroquinazolin-5(6H)-one]",> 10000 nM
2,"Cc1nc(N)nc2c1C(=O)CC(c1ccccc1-c1ccc(F)cc1)C2 (centres unmarked) [Compound 53, 2-amino-7-(4′-fluoro-1,1′-biphenyl-2-yl)-4-methyl-7,8-dihydroquinazolin-5(6H)-one]",< 1000 nM
3,"Cc1nc(N)nc2c1C(=O)CC(c1ccccc1-c1cccc(CN(C)C)c1)C2 (centres unmarked) [Compound 174, 2-amino-7-{3′-[(dimethylamino)methyl]-1,1′-biphenyl-2-yl}-4-methyl-7,8-dihydroquinazolin-5(6H)-one]",1000 to 10000 nM
4,"Cc1nc(N)nc2c1C(=O)CC(c1cccnc1)C2 (centres unmarked) [Compound 160, 2-amino-4-methyl-7-pyridin-3-yl-7,8-dihydroquinazolin-5(6H)-one]",> 10000 nM
5,"Cc1nc(N)nc2c1C(=O)CC(c1ccccc1Oc1cncnc1)C2 (centres unmarked) [Compound 142, 2-amino-4-methyl-7-[2-(pyrimidin-5-yloxy)phenyl]-7,8-dihydroquinazolin-5(6H)-one]",< 1000 nM
6,"Cc1nc(N)nc2c1C(=O)CC(c1ccccc1-c1cccc(C#N)c1)C2 (centres unmarked) [Compound 65, 2′-(2-amino-4-methyl-5-oxo-5,6,7,8-tetrahydroquinazolin-7-yl)-1,1′-biphenyl-3-carbonitrile]",1000 to 10000 nM
7,"COc1cccc(-c2ccccc2C2CC(=O)c3c(C)nc(N)nc3C2)n1 (centres unmarked) [Compound 124, 2-amino-7-[2-(6-methoxypyridin-2-yl)phenyl]-4-methyl-7,8-dihydroquinazolin-5(6H)-one]",< 1000 nM
8,"Cc1nc(N)nc2c1C(=O)CC(c1ccccc1CCc1ccccc1)C2 (centres unmarked) [Compound 162, 2-amino-4-methyl-7-[2-(2-phenylethyl)phenyl]-7,8-dihydroquinazolin-5(6H)-one]",> 10000 nM
9,"Cc1cccc(C2CC(=O)c3c(C)nc(N)nc3C2)c1-c1ccccc1 (centres unmarked) [Compound 15, 2-amino-4-methyl-7-(6-methyl-1,1′-biphenyl-2-yl)-7,8-dihydroquinazolin-5(6H)-one]",1000 to 10000 nM
10,"Cc1nc(N)nc2c1C(=O)CC(c1c(-c3ccccn3)cccc1-c1ccccn1)C2 (centres unmarked) [Compound 38, 2-amino-7-(2,6-dipyridin-2-ylphenyl)-4-methyl-7,8-dihydroquinazolin-5(6H)-one]",< 1000 nM
11,"Cc1nc(N)nc2c1C(=O)CC(c1ccccc1Oc1ccccc1)C2 (centres unmarked) [Compound 133, 2-amino-4-methyl-7-(2-phenoxyphenyl)-7,8-dihydroquinazolin-5(6H)-one]",< 1000 nM
12,"COc1cccc(Oc2ccccc2C2CC(=O)c3c(C)nc(N)nc3C2)n1 (centres unmarked) [Compound 146, 2-amino-7-{2-[(6-methoxypyridin-2-yl)oxy]phenyl}-4-methyl-7,8-dihydroquinazolin-5(6H)-one]",< 1000 nM

# Results, then the compound that gave them:
row,IC50,Structure (SMILES)
1,< 1000 nM,"Cc1nc(N)nc2c1C(=O)CC(c1ccc(F)cc1Oc1ccccc1)C2 (centres unmarked) [Compound 140, 2-amino-7-(4-fluoro-2-phenoxy-phenyl)-4-methyl-7,8-dihydro-6H-quinazolin-5-one]"
2,< 1000 nM,"Cc1nc(N)nc2c1C(=O)CC(c1ccccc1Oc1cnccn1)C2 (centres unmarked) [Compound 143, 2-amino-4-methyl-7-[2-(pyrazin-2-yloxy)phenyl]-7,8-dihydroquinazolin-5(6H)-one]"
3,< 1000 nM,"Cc1nc(N)nc2c1C(=O)CC(c1c(OCCN3CCNCC3)cccc1-c1cccnc1F)C2 (centres unmarked) [Compound 156, 2-amino-7-[2-(2-fluoro-pyridin-3-yl)-6-(2-piperazin-1-yl-ethoxy)-phenyl]-4-methyl-7,8-dihydro-6H-quinazolin-5-one]"
4,< 1000 nM,"Cc1nc(N)nc2c1C(=O)CC(c1ccccc1Oc1cccc(F)n1)C2 (centres unmarked) [Compound 145, 2-amino-7-{2-[(6-fluoropyridin-2-yl)oxy]phenyl}-4-methyl-7,8-dihydroquinazolin-5(6H)-one]"
5,> 10000 nM,"COc1cccc(C2CCCCC2)c1C1CC(=O)c2c(C)nc(N)nc2C1 (centres unmarked) [Compound 173, 2-amino-7-(2-cyclohexyl-6-methoxyphenyl)-4-methyl-7,8-dihydroquinazolin-5(6H)-one]"
6,1000 to 10000 nM,"Cc1nc(N)nc2c1C(=O)CC(c1ccccc1Oc1ncccn1)C2 (centres unmarked) [Compound 144, 2-amino-4-methyl-7-[2-(pyrimidin-2-yloxy)phenyl]-7,8-dihydroquinazolin-5(6H)-one]"
7,< 1000 nM,"Cc1nc(N)nc2c1C(=O)CC(c1ccccc1-c1ccccc1F)C2 (centres unmarked) [Compound 51, 2-amino-7-(2′-fluoro-1,1′-biphenyl-2-yl)-4-methyl-7,8-dihydroquinazolin-5(6H)-one]"
8,1000 to 10000 nM,"Cc1cccc(C2CC(=O)c3c(C)nc(N)nc3C2)c1-c1cccnc1F (centres unmarked) [Compound 19, 2-amino-7-[2-(2-fluoropyridin-3-yl)-3-methylphenyl]-4-methyl-7,8-dihydroquinazolin-5(6H)-one]"
9,1000 to 10000 nM,"Cc1ccc(-c2ccccc2C2CC(=O)c3c(C)nc(N)nc3C2)c(C)n1 (centres unmarked) [Compound 66, 2-amino-7-[2-(2,6-dimethylpyridin-3-yl)phenyl]-4-methyl-7,8-dihydroquinazolin-5(6H)-one]"

# Same assay, conditions: Table II; read-out: Hsp90 IC50 Range
row,Structure (SMILES),IC50
1,"Cc1nc(N)nc2c1C(=O)CC(c1ccc(F)cc1-c1cccc3ccccc13)C2 (centres unmarked) [Compound 212, 2-amino-7-(4-fluoro-2-naphthalen-1-yl-phenyl)-4-methyl-7,8-dihydro-6H-quinazolin-5-one]",< 1000 nM
2,"COc1cccc(-c2ccccc2C2CC(=O)c3c(nc(N)nc3C(F)(F)F)C2)n1 (centres unmarked) [Compound 216, 2-amino-7-[2-(6-methoxy-pyridin-2-yl)-phenyl]-4-trifluoromethyl-7,8-dihydro-6H-quinazolin-5-one]",< 1000 nM
3,"COc1cccc(-c2cc(Cl)ccc2C2CC(=O)c3c(C)nc(N)nc3C2)n1 (centres unmarked) [Compound 251, 2-amino-7-[4-chloro-2-(6-methoxy-pyridin-2-yl)-phenyl]-4-methyl-7,8-dihydro-6H-quinazolin-5-one]",< 1000 nM
4,"CCc1cccc(-n2ccnc2C2CC(=O)c3c(C)nc(N)nc3C2)n1 (centres unmarked) [Compound 201, 2-amino-7-[1-(6-ethyl-pyridin-2-yl)-1H-imidazol-2-yl]-4-methyl-7,8-dihydro-6H-quinazolin-5-one]",1000 to 10000 nM
5,"COc1cnc(-c2cc(F)ccc2C2CC(=O)c3c(C)nc(N)nc3C2)nc1OC (centres unmarked) [Compound 276, 2-amino-7-[2-(4,5-dimethoxy-pyrimidin-2-yl)-4-fluoro-phenyl]-4-methyl-7,8-dihydro-6H-quinazolin-5-one]",< 1000 nM
6,"CCc1nc(N)nc2c1C(=O)CC(c1ccc(F)cc1-c1cccnc1OC)C2 (centres unmarked) [Compound 317, 2-amino-4-ethyl-7-[4-fluoro-2-(2-methoxy-pyridin-3-yl)-phenyl]-7,8-dihydro-6H-quinazolin-5-one]",1000 to 10000 nM
7,"CCc1nc(N)nc2c1C(=O)CC(c1ccc(F)cc1-c1ccccc1OC)C2 (centres unmarked) [Compound 321, 2-amino-4-ethyl-7-(5-fluoro-2′-methoxy-biphenyl-2-yl)-7,8-dihydro-6H-quinazolin-5-one]",1000 to 10000 nM
8,"Cc1nc(N)nc2c1C(=O)CC(c1ncccc1OC1CCCC1)C2 (centres unmarked) [Compound 177, 2-amino-7-(3-cyclopentyloxy-pyridin-2-yl)-4-methyl-7,8-dihydro-6H-quinazolin-5-one]",< 1000 nM
9,"COc1ccc(F)c(-c2scnc2C2CC(=O)c3c(C)nc(N)nc3C2)c1 (centres unmarked) [Compound 289, 2-amino-7-[5-(2-fluoro-5-methoxy-phenyl)-thiazol-4-yl]-4-methyl-7,8-dihydro-6H-quinazolin-5-one]",1000 to 10000 nM
10,"COc1ncc(-c2cc(F)ccc2C2CC(=O)c3c(C)nc(N)nc3C2)nc1OC (centres unmarked) [Compound 322, 2-amino-7-[2-(5,6-dimethoxy-pyrazin-2-yl)-4-fluoro-phenyl]-4-methyl-7,8-dihydro-6H-quinazolin-5-one]",< 1000 nM
11,"Cc1nc(N)nc2c1C(=O)CC(c1ccc(F)cc1-c1nccnc1Cl)C2 (centres unmarked) [Compound 228, 2-amino-7-[2-(3-chloro-pyrazin-2-yl)-4-fluoro-phenyl]-4-methyl-7,8-dihydro-6H-quinazolin-5-one]",1000 to 10000 nM

# Second part, the compound after the results:
row,IC50,Structure (SMILES)
1,> 10000 nM,"Nc1ncc2c(n1)CC(c1ccccc1Br)CC2=O (centres unmarked) [Compound 244, 2-amino-7-(2-bromo-phenyl)-7,8-dihydro-6H-quinazolin-5-one]"
2,1000 to 10000 nM,"CC(=O)c1ccc(-c2cc(F)ccc2[C@@H]2CC(=O)c3c(C)nc(N)nc3C2)s1 [Compound 326, (S)-7-[2-(5-Acetyl-thiophen-2-yl)-4-fluoro-phenyl]-2-amino-4-methyl-7,8-dihydro-6H-quinazolin-5-one]"
3,1000 to 10000 nM,"Cc1nc(N)nc2c1C(=O)CC(c1cccc(F)c1Br)C2 (centres unmarked) [Compound 237, 2-amino-7-(2-bromo-3-fluoro-phenyl)-4-methyl-7,8-dihydro-6H-quinazolin-5-one]"
4,< 1000 nM,"COc1cncc(-c2cc(F)ccc2C2CC(=O)c3c(C)nc(N)nc3C2)n1 (centres unmarked) [Compound 221, 2-amino-7-[4-fluoro-2-(6-methoxy-pyrazin-2-yl)-phenyl]-4-methyl-7,8-dihydro-6H-quinazolin-5-one]"
5,< 1000 nM,"COc1cncc(-c2cc(F)ccc2[C@@H]2CC(=O)c3c(C)nc(N)nc3C2)n1 [Compound 226, (S)-2-amino-7-[4-fluoro-2-(6-methoxy-pyrazin-2-yl)-phenyl]-4-methyl-7,8-dihydro-6H-quinazolin-5-one]"
6,< 1000 nM,"Cc1nc(N)nc2c1C(=O)CC(c1ccc(Cl)cc1-c1cccnc1F)C2 (centres unmarked) [Compound 249, 2-amino-7-[4-chloro-2-(2-fluoro-pyridin-3-yl)-phenyl]-4-methyl-7,8-dihydro-6H-quinazolin-5-one]"
